Active and inactive are the calls of the source. No cut-off for these calls is given here.
Legend:
RAW264.7 [1] = test: Antiinflammatory activity against mouse RAW264.7 cells assessed as inhibition of LPS-induced nitric oxide production at 5 uM measured after 24 hrs; type: functional, cell-based
RAW264.7 [2] = test: Antiinflammatory activity against mouse RAW264.7 cells assessed as inhibition of LPS-induced nitric oxide production measured after 24 hrs; type: functional, cell-based; details: RAW264.7, 24 h
RAW264.7 [3] = test: Cytotoxicity against mouse RAW264.7 cells assessed as reduction in cell viability at upto 25 uM measured after 24 hrs by MTT assay; type: toxicity, cell-based; details: raw264.7, 24 h
RAW264.7 [4] = test: Inhibition of TNF-alpha production in LPS-stimulated mouse RAW264.7 cells measured after 24 hrs by ELISA; type: functional, cell-based; details: dose 3.125-12.5 µM, DDE = dose-dependent effect
RAW264.7 [5] = test: Inhibition of IL-1beta production in LPS-stimulated mouse RAW264.7 cells measured after 24 hrs by ELISA; type: functional, cell-based; details: dose 3.125-12.5 µM, DDE = dose-dependent effect
RAW264.7 [6] = test: Inhibition of IL-6 production in LPS-stimulated mouse RAW264.7 cells measured after 24 hrs by ELISA; type: functional, cell-based; details: dose 3.125-12.5 µM, DDE = dose-dependent effect
RAW264.7 [7] = test: Inhibition of PGE2 production in LPS-stimulated mouse RAW264.7 cells measured after 24 hrs by ELISA; type: functional, cell-based; details: dose 3.125-12.5 µM, DDE = dose-dependent effect
RAW264.7 [8] = test: Inhibition of IL-1beta mRNA expression in LPS-stimulated mouse RAW264.7 cells measured after 24 hrs by qRT-PCR analysis; type: functional, cell-based; details: dose 3.125-12.5 µM, DDE = dose-dependent effect
RAW264.7 [9] = test: Inhibition of IL-6 mRNA expression in LPS-stimulated mouse RAW264.7 cells measured after 24 hrs by qRT-PCR analysis; type: functional, cell-based; details: dose 3.125-12.5 µM, DDE = dose-dependent effect
RAW264.7 [10] = test: Inhibition of COX-2 mRNA expression in LPS-stimulated mouse RAW264.7 cells measured after 24 hrs by qRT-PCR analysis; type: functional, cell-based; details: dose 3.125-12.5 µM, DDE = dose-dependent effect
RAW264.7 [11] = test: Downregulation of iNOS protein expression in LPS-stimulated mouse RAW264.7 cells measured after 24 hrs by Western blot analysis; type: functional, cell-based; details: dose 3.125-12.5 µM
RAW264.7 [12] = test: Downregulation of COX-2 protein expression in LPS-stimulated mouse RAW264.7 cells measured after 24 hrs by Western blot analysis; type: functional, cell-based; details: dose 3.125-12.5 µM
RAW264.7 [13] = test: Inhibition of LPS-induced NF-kappaB activation in mouse RAW264.7 cells assessed as upregulation of IkappaBalpha protein expression at 3.125 to 12.5 uM preincubated for 24 hrs followed by LPS addition and measured after 30 mins by Western blot analysis; type: cell-based; details: dose 3.125-12.5 µM, time 24.5 hrs
RAW264.7 [14] = test: Inhibition of LPS-induced NF-kappaB activation in mouse RAW264.7 cells assessed as reduction in p65 expression in nucleus at 3.125 to 12.5 uM preincubated for 24 hrs followed by LPS addition and measured after 30 mins by Western blot analysis; type: cell-based; details: dose 3.125-12.5 µM
RAW264.7 [15] = test: Inhibition of LPS-induced NF-kappaB activation in mouse RAW264.7 cells assessed as reduction in translocation of p65 from cytoplasm to nucleus at 3.125 to 12.5 uM preincubated for 24 hrs followed by LPS addition and measured after 30 mins by immunofluorescence analysis; type: cell-based; details: dose 3.125-12.5 µM
RAW264.7 [16] = test: Inhibition of Akt phosphorylation in LPS-stimulated mouse RAW264.7 cells at 3.125 to 12.5 uM measured after 24 hrs by Western blot analysis; type: cell-based; details: dose 3.125-12.5 µM
[17] = target: c-Jun N-terminal kinase (Mus musculus) (UniProt Q91Y86+Q9WTU6+Q61831); test: Inhibition of JNK phosphorylation in LPS-induced mouse RAW264.7 cells measured after 24 hrs by Western blot analysis; type: cell-based; details: dose 3.125-12.5 µM, DDE = dose-dependent effect
Sequence of c-Jun N-terminal kinase (Mus musculus) (Q61831 whole entry, looked up): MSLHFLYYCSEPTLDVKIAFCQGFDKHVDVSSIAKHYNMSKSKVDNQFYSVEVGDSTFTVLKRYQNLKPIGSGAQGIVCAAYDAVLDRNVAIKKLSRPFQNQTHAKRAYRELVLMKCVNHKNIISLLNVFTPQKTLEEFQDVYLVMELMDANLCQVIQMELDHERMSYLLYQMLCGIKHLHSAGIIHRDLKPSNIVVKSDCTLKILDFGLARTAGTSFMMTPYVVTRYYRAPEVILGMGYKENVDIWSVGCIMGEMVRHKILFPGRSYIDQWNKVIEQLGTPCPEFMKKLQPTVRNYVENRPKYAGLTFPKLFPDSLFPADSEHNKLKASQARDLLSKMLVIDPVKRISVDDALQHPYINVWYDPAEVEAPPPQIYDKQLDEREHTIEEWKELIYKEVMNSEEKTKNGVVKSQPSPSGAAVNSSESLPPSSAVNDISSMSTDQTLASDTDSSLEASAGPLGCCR
Sequence of c-Jun N-terminal kinase (Mus musculus) (Q91Y86 whole entry, looked up): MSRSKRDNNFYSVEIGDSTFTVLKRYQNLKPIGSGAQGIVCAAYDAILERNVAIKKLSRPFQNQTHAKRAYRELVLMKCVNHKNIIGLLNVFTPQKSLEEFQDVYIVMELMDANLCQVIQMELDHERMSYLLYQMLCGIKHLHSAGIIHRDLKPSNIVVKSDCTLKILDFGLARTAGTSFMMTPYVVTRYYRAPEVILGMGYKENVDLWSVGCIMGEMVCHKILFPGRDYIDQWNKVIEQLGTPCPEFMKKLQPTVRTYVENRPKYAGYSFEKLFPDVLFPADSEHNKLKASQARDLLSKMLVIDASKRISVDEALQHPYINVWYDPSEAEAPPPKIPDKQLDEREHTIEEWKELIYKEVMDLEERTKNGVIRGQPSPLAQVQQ
Sequence of c-Jun N-terminal kinase (Mus musculus) (Q9WTU6 whole entry, looked up): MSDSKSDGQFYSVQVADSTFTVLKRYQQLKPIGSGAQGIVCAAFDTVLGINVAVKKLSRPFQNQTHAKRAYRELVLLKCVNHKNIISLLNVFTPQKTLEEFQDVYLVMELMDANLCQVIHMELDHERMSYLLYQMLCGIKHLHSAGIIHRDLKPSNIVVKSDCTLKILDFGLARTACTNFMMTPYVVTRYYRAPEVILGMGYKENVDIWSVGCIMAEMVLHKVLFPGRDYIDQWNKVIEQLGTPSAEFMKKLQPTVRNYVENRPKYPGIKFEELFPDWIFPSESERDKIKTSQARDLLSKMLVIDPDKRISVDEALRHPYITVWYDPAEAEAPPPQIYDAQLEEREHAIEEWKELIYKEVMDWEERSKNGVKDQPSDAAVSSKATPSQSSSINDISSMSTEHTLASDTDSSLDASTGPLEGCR

SMILES	NO production inhibition (active/inactive call) (RAW264.7 [1])	also measured
CCN(CC)CC(=O)OCc1cc(O)c2c(c1)C(=O)c1cccc(O)c1C2=O	Active	–
O=C(CN1CCCC1)OCc1cc(O)c2c(c1)C(=O)c1cccc(O)c1C2=O	Active	–
CN1CCN(CC(=O)OCc2cc(O)c3c(c2)C(=O)c2cccc(O)c2C3=O)CC1	–	IC50 (RAW264.7 [2]): 3.15 µM; Activity (RAW264.7 [3]): Non-Toxic; inhibition (RAW264.7 [4]): Dde; inhibition (RAW264.7 [5]): Dde; inhibition (RAW264.7 [6]): Dde; inhibition (RAW264.7 [7]): Dde; inhibition (RAW264.7 [8]): Dde; inhibition (RAW264.7 [9]): Dde; inhibition (RAW264.7 [10]): Dde; Activity (RAW264.7 [11]): Active; Activity (RAW264.7 [12]): Active; inhibition (RAW264.7 [13]): Active; inhibition (RAW264.7 [14]): Active; inhibition (RAW264.7 [15]): Active; inhibition (RAW264.7 [16]): Active; inhibition [17]: Dde
O=C(CN1CCC(O)CC1)OCc1cc(O)c2c(c1)C(=O)c1cccc(O)c1C2=O	Active	–
O=C(CN1CCSCC1)OCc1cc(O)c2c(c1)C(=O)c1cccc(O)c1C2=O	Active	–
CC(=O)Oc1cccc2c1C(=O)c1c(OC(C)=O)cc(COC(=O)CN3CCN(c4ccc(F)cc4)CC3)cc1C2=O	Active	–
CC(C)C(=O)Oc1cccc2c1C(=O)c1c(OC(=O)C(C)C)cc(COC(=O)CN3CCOCC3)cc1C2=O	Active	–
CC(C)N(C)CC(=O)OCc1cc(O)c2c(c1)C(=O)c1cccc(O)c1C2=O	Active	–
O=C(CN1CCN(c2ccc(F)cc2)CC1)OCc1cc(O)c2c(c1)C(=O)c1cccc(O)c1C2=O	Active	–
CC(=O)Oc1cccc2c1C(=O)c1c(OC(C)=O)cc(COC(=O)CN3CCOCC3)cc1C2=O	Active	–
CC(=O)Oc1cccc2c1C(=O)c1c(OC(C)=O)cc(COC(=O)CN3CCC(OC(C)=O)CC3)cc1C2=O	Active	–
CC(=O)Oc1cccc2c1C(=O)c1c(OC(C)=O)cc(COC(=O)CN3CCCCC3)cc1C2=O	Active	–
O=C(CN1CCOCC1)OCc1cc(O)c2c(c1)C(=O)c1cccc(O)c1C2=O	Active	–
CCCN(C)CC(=O)OCc1cc(O)c2c(c1)C(=O)c1cccc(O)c1C2=O	Active	–
CC(=O)Oc1cccc2c1C(=O)c1c(OC(C)=O)cc(COC(=O)CN3CCSCC3)cc1C2=O	Active	–
CC(=O)Oc1cccc2c1C(=O)c1c(OC(C)=O)cc(COC(=O)CN3CCN(c4ccccc4)CC3)cc1C2=O	Active	–
O=C(CN1CCOCC1)OCc1cc(OC(=O)c2ccccc2)c2c(c1)C(=O)c1cccc(OC(=O)c3ccccc3)c1C2=O	Active	–
O=C(CN1CCN(c2ccccc2)CC1)OCc1cc(O)c2c(c1)C(=O)c1cccc(O)c1C2=O	Active	–
O=C(CN1CCCCC1)OCc1cc(O)c2c(c1)C(=O)c1cccc(O)c1C2=O	Active	–

Reference: ChEMBL document CHEMBL5137047, “Design, synthesis and anti-inflammatory evaluation of aloe-emodin derivatives as potential modulators of Akt, NF-κB and JNK signaling pathways” (Eur J Med Chem, 2022)
